The test addresses T1, KRAS G12C (Homo sapiens, UniProt P01116, G12C).
T1 construct: expressed in transfected cells; host or cells: Ras Initiative (RI) KRAS G12C cells
The test can be described thus: phospho-ERK HTRF assay in Ras Initiative (RI) KRAS G12C cells. The test is classed as cell-based. As to conditions: phospho-ERK1/2 HTRF, 11-point dose response from 2,500 nM, treatment for either 4 hours or 16 hours, read-out: pERK (RI). Here is the method:
Inhibition of KRAS G12C-Mediates Phospho-ERK1/2 Inhibition by Compounds of Formula I
This Example illustrates that various compounds of the present disclosure inhibit KRAS G12C thereby mediating the downstream inhibition of phospho-ERK1/2.
KRAS G12C mutant cell lines, NCI H358 (ATCC, CRL-5807), and Ras Initiative (R1) KRAS G12C were cultured according to published protocols and maintained at 37° C. in 5% CO2. The phospho-ERK HTRF assay was executed following provider's protocol (CisBio #64AERPEH). NCI-H358 or RI KRAS G12C cells were plated at a density of 50,000 cells per well in a 96-well plate (Corning #3903) in respective medias (for NCI-H358, RPMI+10% FBS+1% Pen/Strep, and for RI KRAS G12C, DMEM+10% FBS+1% Pen/Strep+4 ug/ml Blasticidin) and maintained at 37° C. in 5% CO2. Cells were allowed to adhere overnight and treated the following day with a Tecan D300e Digital Dispenser (Tecan Group Ltd., Switzerland) using an 11-point dose response starting at 2,500 nM of exemplified compounds followed by sequential 1:3 dilutions for either 4 hours or 16 hours. Following compound treatment, the cells were washed once with ice-cold PBS. Cells were lysed by adding 50 μl of lysis buffer (1×) supplemented with 1× Pierce Halt Protease and Phosphatase inhibitor and incubated for 30 minutes at 4° C. with shaking. After lysis, 16 μL of cell lysate from the 96-well cell-culture plate was transferred to a 384-well plate (Perkin Elmer #6007290). The premixed antibody solution was prepared by mixing (vol/vol) advanced phospho-ERK1/2 d2 antibody and advanced phospho-ERK1/2 Eu Cryptate antibody. The premixed antibody solution ([…]) was added to the detection plate containing cell lysate. The detection plate was incubated overnight at 4° C., the HTRF signal was read the next day by using either a Spectramax M5 or Spectramax i3 microplate reader (Molecular Devices, San Jose, CA, USA), and data was processed according to manufacturer's protocol.
Compounds prepared according to the preceding procedures and characterized for inhibition of p-ERK according to the protocol provided herein are summarized in Table 3: […]
For orientation: Time-resolved FRET reads energy transfer from a long-lived donor to a nearby acceptor.

With `C=CC(=O)N1[C@H](C)CN(c2nc(=O)n3c4c(c(-c5ccc(F)cc5)c(C(F)(F)F)cc24)SC[C@@H](c2cncc(F)c2)C3)C[C@@H]1C` [Example 126, (S)-8-((3S,5R)-4-acryloyl-3,5-dimethylpiperazin-1-yl)-11-(4-fluorophenyl)-3-(5-fluoropyridin-3-yl)-10-(trifluoromethyl)-3,4-dihydro-2H,6H-[1,4]thiazepino[2,3,4-ij]quinazolin-6-one], the IC50 was in the range of 0.5 to 2 nM.

Take “(3R,11S)-8-((3S,5R)-4-acryloyl-3,5-dimethylpiperazin-1-yl)-11-(5-chloro-2,4-difluorophenyl)-3-((S)-3,4-dihydropyridin-4-yl)-10-(trifluoromethyl)-3,4-dihydro-2H,6H-[1,4]thiazepino[2,3,4-ij]quinazolin-6-one [Example 101B]”: the IC50 lay in the range of 20 to 250 nM.
